Reference: patent US20060057104A1, “Methods for stimulating tlr irf3 pathways for inducing anti-microbial, anti-inflammatory and anticancer responses” (THE Regents of the University of California Office of the …, priority 2002, published 2006)

How the values were obtained:
MHV68 = MHV68 viral replication assay in wild-type and IFNAR−/− BMMs (M9 western blot); type: cell-based, Murine gammaherpesvirus 68; details: MOI 5, 48 h, co-treatment
Protocol: (B) For viral replication assays, BMMs were simultaneously stimulated with PAMPs (10, 1, or 0.1 ng/ml lipid A, or 1, 0.1, or 0.01 μg/ml poly(I:C)) and infected with MHV68 using a multiplicity of infection of five. Cell lysates were harvested at 48 h postinfection and subjected to Western blotting analysis using an Ab specific to the MHV68 protein M9. Actin levels were also assayed to ensure equal loading. The data represent two independent experiments.
A129 (IFNAR-1^−/−) (Muller, U., U. Steinhoff, L. F. L. Reis, S. Hemmi, J. Pavlovic, R. M. Zinkernagel, and M. Aguet. 1994. Functional role of type I and type II interferons in antiviral defense. Science 264:1918) and B6129SF2/J wild type control mice were obtained from B&K Universal Ltd. and Jackson Laboratories, respectively. C57/B6 mice were used for all experiments not involving the A129 mice (Jackson Laboratories). Specific TLR activation was achieved using F-583 (Rd mutant) E. coli lipid A for TLR4 (Sigma), CpG oligonucleotides for TLR9 (Invitrogen) and poly I:C for TLR3 (Pharmacia). […]
Using the MHV68 protein M9 as a readout for viral load, we show in FIG. 13B that the antiviral activity of macrophage cells infected with MHV68 was abolished in the absence of IFNAR despite co-treatment with either lipid A or poly I:C. […]

BMMs = test: Quantitative real-time PCR gene expression in BMMs, wild-type and IFNAR deficient (Example 2); type: cell-based, murine; details: for TLR3 mRNA production / TLR4 mRNA production: primary macrophages, by four hours; for TLR3 mRNA production / TLR4 mRNA production / IFN-β and IP10 induction at one hour: poly I:C 1 μg/ml, lipid A 1 ng/ml; for IFI-204 expression at one hour / IFN-β and IP10 induction at one hour: wild type and IFNAR knockout macrophages; for ICAM1 mRNA (induction control): wild-type and knockout cells, one and four hours
Protocol: Murine BMMs were stimulated with poly(I:C) (10 μg/ml) or lipid A (1 ng/ml) for the indicated times. Total RiNA was isolated and converted to cDNA for quantitative real-time PCR analysis using primers specific for IFN-β, IFI-204, IP10, IκBα, or L32. Experiments were repeated three times, and the data are presented in relative expression units on a log scale, as described in Example 2, infra.
Primary macrophage cells derived from bone marrow cells were stimulated with poly I:C (1 μg/ml) or lipid A (1 ng/ml) for the indicated times, as described in Example 2, infra.
(B) TLR3 and TLR4 mRNA levels were also assessed in cells deficient in IFNAR, and cells stimulated with rIFN-β (10, 100, and 1000 U). Experiments were repeated at least two separate times, and data are presented in relative expression units. L32 was used to normalize all samples.
Both wild-type cells and cells deficient in IFNAR were stimulated with poly I:C (1 μg/ml) or lipid A (1 ng/ml) for either 1 or 4 h. IFN-β, IP10, IFI-204, ICAM1, and L32 mRNA levels were assessed. Data are representative of three independent experiments and presented in relative expression units, as described in Example 2, infra.
Murine bone marrow-derived macrophages (BMMs) were differentiated from marrow as previously described (Doyle, S. E., S. A. Vaidya, R. O'Connell, H. Dadgostar, P. W. Dempsey, T.-T. Wu, G. Rao, R. Sun, M. E. Haberland, R. L. Modlin, and G. Cheng. 2002. IRF3 mediates a TLR3/TLR4-specific antiviral gene program. Immunity 17:251). A129 (IFNAR-1^−/−) (Muller, U., U. Steinhoff, L. F. L. Reis, S. Hemmi, J. Pavlovic, R. M. Zinkernagel, and M. Aguet. 1994. Functional role of type I and type II interferons in antiviral defense. Science 264:1918) and B6129SF2/J wild type control mice were obtained from B&K Universal Ltd. and Jackson Laboratories, respectively. C57/B6 mice were used for all experiments not involving the A129 mice (Jackson Laboratories). Specific TLR activation was achieved using F-583 (Rd mutant) E. coli lipid A for TLR4 (Sigma), CpG oligonucleotides for TLR9 (Invitrogen) and poly I:C for TLR3 (Pharmacia). For experiments employing the TIRAP/MAL inhibitory peptide (CN Biosciences), cells were pretreated for 1 hour with 20 μM peptide or DMSO alone. Cells were then stimulated with PAMPs in the presence of the inhibitory peptide. For experiments using murine rIFN-β (R&D Systems), wild-type macrophage cells were stimulated with 10, 100, or 1000 units. Viral infection and harvest was performed using MHV68 at an M.O.I. of 5 as previously described (Doyle, S. E., S. A. Vaidya, R. O'Connell, H. Dadgostar, P. W. Dempsey, T.-T. Wu, G. Rao, R. Sun, M. E. Haberland, R. L. Modlin, and G. Cheng. 2002. IRF3 mediates a TLR3/TLR4-specific antiviral gene program. Immunity 17:251).
RNA was isolated by standard guanidium isothiocyanate methods. cDNA template for quantitative realtime PCR analysis was then synthesized and PCR was performed using the iCycler thermocycler (Bio-Rad) as previously described (Doyle, S. E., S. A. Vaidya, R. O'Connell, H. Dadgostar, P. W. Dempsey, T.-T. Wu, G. Rao, R. Sun, M. E. Haberland, R. L. Modlin, and G. Cheng. 2002. IRF3 mediates a TLR3/TLR4-specific antiviral gene program. Immunity 17:251). IFN-βIP10, IκBα and IFI-204 primers were the same as those previously described (Doyle, S. E., S. A. Vaidya, R. O'Connell, H. Dadgostar, P. W. Dempsey, T.-T. Wu, G. Rao, R. Sun, M. E. Haberland, R. L. Modlin, and G. Cheng. 2002. IRF3 mediates a TLR3/TLR4-specific antiviral gene program. Immunity 17:251). For other genes, the following primers were used: […]

Substance	antiviral activity against MHV68 in the absence of IFNAR (MHV68)	expression of MyD88 and TIRAP/MAL (BMMs)	IFI-204 expression by four hours, IFNAR knockout cells (BMMs)	IP10 expression by four hours, IFNAR knockout cells (BMMs)	TLR3 mRNA production (BMMs)	TLR4 mRNA production (BMMs)	IFI-204 expression by four hours, wild type cells (BMMs)	IP10 expression by four hours, wild type cells (BMMs)	IFI-204 expression at one hour (BMMs)	IFN-β and IP10 induction at one hour (BMMs)	ICAM1 mRNA (induction control) (BMMs)	induction of IFN-β, IP10 and IFI-204 relative to TLR4 agonist lipid A (BMMs; BMMs, up to twelve hours, poly I:C 10 μg/ml vs lipid A 1 ng/ml)
lipid A	abolished	can induce the expression	not detectable	remained relatively unchanged	caused the induction of TLR3	but not TLR4	induced to high levels	significantly enhanced	remained at basal levels	induced by one hour	elevated by one hour and remained high by four hours	
poly I:C	abolished	can induce the expression	not detectable	remained relatively unchanged	caused the induction of TLR3	but not TLR4	induced to high levels	significantly enhanced	remained at basal levels	induced by one hour	elevated by one hour and remained high by four hours	induced to higher levels and for extended periods of time
